# Measurements from patent publication US20100204224A1, “AZACYCLIC COMPOUNDS AS INHIBITORS OF SENSORY NEURONE SPECIFIC SODIUM CHANNELS” (priority 2005, published 2010).
# pIC50: −log10 of the molar value. Where a name gives a salt, the structure may show the parent alone.
# Molecular target: T1, human Nav1.8 (hNav1.8) ion channel (Homo sapiens, UniProt Q9Y5Y9)
# T1 construct: expressed in transfected cells
# Assay: Inhibition of human Nav1.8 stably expressed in SH-SY-5Y cells (membrane potential dye fluorescence assay)
# Format: cell-based
# Conditions: SH-SY-5Y hNav1.8 cells; FLIPR membrane potential dye; 10 μM pyrethroid, 250 nM TTX; test concentration range 100 μM-0.05 μM; read-out: hNav1.8 IC50
# T1 sequence (Q9Y5Y9 whole entry): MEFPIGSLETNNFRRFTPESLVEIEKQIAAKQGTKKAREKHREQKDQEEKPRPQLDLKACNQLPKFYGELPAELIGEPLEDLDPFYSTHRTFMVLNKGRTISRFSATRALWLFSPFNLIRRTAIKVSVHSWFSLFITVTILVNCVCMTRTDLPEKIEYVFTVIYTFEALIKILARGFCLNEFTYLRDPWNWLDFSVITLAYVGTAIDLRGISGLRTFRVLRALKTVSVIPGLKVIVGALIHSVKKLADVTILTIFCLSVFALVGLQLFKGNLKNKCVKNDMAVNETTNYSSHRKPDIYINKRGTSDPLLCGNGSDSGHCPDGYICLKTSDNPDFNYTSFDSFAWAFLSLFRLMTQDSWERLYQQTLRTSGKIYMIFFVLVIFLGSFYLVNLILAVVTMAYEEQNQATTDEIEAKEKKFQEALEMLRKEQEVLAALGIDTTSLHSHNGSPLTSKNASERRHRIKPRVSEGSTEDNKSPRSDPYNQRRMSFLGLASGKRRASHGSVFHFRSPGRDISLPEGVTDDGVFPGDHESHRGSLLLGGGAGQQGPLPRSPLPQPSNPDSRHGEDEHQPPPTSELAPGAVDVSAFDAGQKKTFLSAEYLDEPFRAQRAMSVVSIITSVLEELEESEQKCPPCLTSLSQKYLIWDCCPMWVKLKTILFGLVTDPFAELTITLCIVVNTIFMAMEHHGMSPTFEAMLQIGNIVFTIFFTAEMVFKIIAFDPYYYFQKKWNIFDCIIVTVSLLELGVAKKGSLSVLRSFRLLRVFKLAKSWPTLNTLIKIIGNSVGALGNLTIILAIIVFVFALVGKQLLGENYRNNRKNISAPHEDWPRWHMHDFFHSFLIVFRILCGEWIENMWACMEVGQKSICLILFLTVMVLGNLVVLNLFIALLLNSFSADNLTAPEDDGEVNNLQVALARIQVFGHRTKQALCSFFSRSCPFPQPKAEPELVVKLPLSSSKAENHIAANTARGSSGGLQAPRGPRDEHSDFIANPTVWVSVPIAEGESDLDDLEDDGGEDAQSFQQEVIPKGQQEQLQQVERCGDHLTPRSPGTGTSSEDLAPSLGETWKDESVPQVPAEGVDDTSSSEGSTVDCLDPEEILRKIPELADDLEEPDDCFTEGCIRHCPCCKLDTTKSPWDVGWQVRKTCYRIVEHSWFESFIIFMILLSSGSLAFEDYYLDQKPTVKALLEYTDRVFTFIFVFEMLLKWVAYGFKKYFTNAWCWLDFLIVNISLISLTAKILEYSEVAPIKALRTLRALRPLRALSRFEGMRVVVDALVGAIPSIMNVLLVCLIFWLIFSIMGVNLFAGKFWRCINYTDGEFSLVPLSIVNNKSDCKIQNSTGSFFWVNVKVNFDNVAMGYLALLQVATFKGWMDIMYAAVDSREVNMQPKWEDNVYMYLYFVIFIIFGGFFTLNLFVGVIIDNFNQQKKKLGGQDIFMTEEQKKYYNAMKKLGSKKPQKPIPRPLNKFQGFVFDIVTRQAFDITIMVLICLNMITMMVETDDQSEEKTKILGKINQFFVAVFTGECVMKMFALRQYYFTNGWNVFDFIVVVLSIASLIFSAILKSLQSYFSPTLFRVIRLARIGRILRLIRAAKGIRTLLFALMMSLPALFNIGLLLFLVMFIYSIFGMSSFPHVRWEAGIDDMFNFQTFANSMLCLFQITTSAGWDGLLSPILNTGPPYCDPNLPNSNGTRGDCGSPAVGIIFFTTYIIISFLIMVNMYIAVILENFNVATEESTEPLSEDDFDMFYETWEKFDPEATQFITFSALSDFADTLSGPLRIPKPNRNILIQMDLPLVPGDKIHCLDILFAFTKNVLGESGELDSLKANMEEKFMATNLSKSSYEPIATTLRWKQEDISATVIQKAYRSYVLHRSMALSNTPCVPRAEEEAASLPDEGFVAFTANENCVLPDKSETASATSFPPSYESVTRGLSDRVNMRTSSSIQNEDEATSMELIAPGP
row,Structure (SMILES),pIC50
1,"O=C(c1ccc(C(F)(F)F)cc1)N1CC2CC1CN2C1CCc2ccccc2C1 (stereo not shown) [Example 137, [5-(1,2,3,4-Tetrahydro-naphthalen-2-yl)-2,5-diaza-bicyclo[2.2.1]hept-2-yl]-(4-trifluoromethyl-phenyl)-methanone]",4.64
2,"O=C(c1ccc(C(F)(F)F)cc1)N1CC2CC1CN2C1CCc2ccc(F)cc2C1 (stereo not shown) [Example 138, [5-(7-Fluoro-1,2,3,4-tetrahydro-naphthalen-2-yl)-2,5-diaza-bicyclo[2.2.1]hept-2-yl]-(4-trifluoromethyl-phenyl)-methanone]",4.88
3,"Cc1ccc(Oc2ccc(NC(=O)N3CC4CC3CN4C(C)c3ccccc3Cl)cc2)cc1 (stereo not shown) [Example 139, 5-[1-(2-Chloro-phenyl)-ethyl]-2,5-diaza-bicyclo[2.2.1]heptane-2-carboxylic acid (4-p-tolyloxy-phenyl)-amide]",5.94
4,"Cc1ccc(Oc2ccc(NC(=O)N3CC4CC3CN4C(C)c3ccccc3Cl)cc2)cc1 (stereo not shown) [Example 140, 5-[1-(2-Chloro-phenyl)-ethyl]-2,5-diaza-bicyclo[2.2.1]heptane-2-carboxylic acid (4-p-tolyloxy-phenyl)-amide]",5.91
5,"O=C(Nc1ccc(Oc2ccccc2)cc1)N1CC2CC1CN2C1CCc2cccc(Cl)c21 (stereo not shown) [Example 141, 5-(7-Chloro-indan-1-yl)-2,5-diaza-bicyclo[2.2.1]heptane-2-carboxylic acid (4-phenoxy-phenyl)-amide]",6.70
6,"CC(c1ccccc1Cl)N1CC2CC1CN2C(=O)N(C)c1ccc(Oc2ccc(F)cc2)cc1 (stereo not shown) [Example 143, 5-[1-(2-Chloro-phenyl)-ethyl]-2,5-diaza-bicyclo[2.2.1]heptane-2-carboxylic acid [4-(4-fluoro-phenoxy)-phenyl]-methyl-amide]",5.49
7,"O=C(NCc1ccc(Oc2ccccc2)cc1)N1CC2CC1CN2C1Cc2ccc(F)cc2C1 (stereo not shown) [Example 145, 5-(5-Fluoro-indan-2-yl)-2,5-diaza-bicyclo[2.2.1]heptane-2-carboxylic acid 4-phenoxy-benzylamide]",5.84
8,"O=C(NCc1ccc(Oc2ccc(F)cc2)cc1)N1CC2CC1CN2C1Cc2ccc(F)cc2C1 (stereo not shown) [Example 146, 5-(5-Fluoro-indan-2-yl)-2,5-diaza-bicyclo[2.2.1]heptane-2-carboxylic acid 4-(4-fluoro-phenoxy)-benzylamide]",5.89
9,"CC(c1ccccc1Cl)N1CC2CC1CN2C(=O)c1cc2ccccc2[nH]1 (stereo not shown) [Example 149, {5-[1-(2-Chloro-phenyl)-ethyl]-2,5-diaza-bicyclo[2.2.1]hept-2-yl}-(1H-indol-2-yl)-methanone]",5.23
10,"CC(c1ccccc1Cl)N1CC2CC1CN2C(=O)c1cc2cc(Cl)ccc2[nH]1 (stereo not shown) [Example 150, (5-Chloro-1H-indol-2-yl)-{5-[1-(2-chloro-phenyl)-ethyl]-2,5-diaza-bicyclo[2.2.1]hept-2-yl}-methanone]",4.74
11,"CC(c1ccccc1Cl)N1CC2CC1CN2C(=O)c1ccc(Oc2ccc(F)cc2)cc1 (stereo not shown) [Example 151, {5-[1-(2-Chloro-phenyl)-ethyl]-2,5-diaza-bicyclo[2.2.1]hept-2-yl}-[4-(4-fluoro-phenoxy)-phenyl]-methanone]",5.95
12,"CC(c1ccccc1Cl)N1CC2CC1CN2C(=O)c1ccc(Oc2ccc(F)cc2)cc1 (stereo not shown) [Example 152, {5-[1-(2-Chloro-phenyl)-ethyl]-2,5-diaza-bicyclo[2.2.1]hept-2-yl}-[4-(4-fluoro-phenoxy)-phenyl]-methanone]",5.60
13,"CC(c1ccccc1Br)N1CC2CC1CN2C(=O)c1ccc(Oc2ccccc2)cc1 (stereo not shown) [Example 159, {5-[1-(2-Bromo-phenyl)-ethyl]-2,5-diaza-bicyclo[2.2.1]hept-2-yl}-(4-phenoxy-phenyl)-methanone]",4.83
14,"CC(c1ccc(F)cc1Cl)N1CC2CC1CN2C(=O)c1ccc(Oc2ccc(F)cc2)cc1 (stereo not shown) [Example 163, {5-[1-(2-Chloro-4-fluoro-phenyl)-ethyl]-2,5-diaza-bicyclo[2.2.1]hept-2-yl}-[4-(4-fluoro-phenoxy)-phenyl]-methanone]",4.75
15,"CC(c1ccc(F)cc1Cl)N1CC2CC1CN2C(=O)c1ccc(Oc2ccc(F)cc2)cc1 (stereo not shown) [Example 164, {5-[1-(2-Chloro-4-fluoro-phenyl)-ethyl]-2,5-diaza-bicyclo[2.2.1]hept-2-yl}-[4-(4-fluoro-phenoxy)-phenyl]-methanone]",4.87
16,"CC(c1c(F)cccc1Cl)N1CC2CC1CN2C(=O)c1ccc(Oc2ccc(F)cc2)cc1 (stereo not shown) [Example 167, {5-[1-(2-Chloro-6-fluoro-phenyl)-ethyl]-2,5-diaza-bicyclo[2.2.1]hept-2-yl}-[4-(4-fluoro-phenoxy)-phenyl]-methanone]",5.65
17,"CC(c1c(F)cccc1Cl)N1CC2CC1CN2C(=O)c1ccc(Oc2ccc(F)cc2)cc1 (stereo not shown) [Example 168, {5-[1-(2-Chloro-6-fluoro-phenyl)-ethyl]-2,5-diaza-bicyclo[2.2.1]hept-2-yl}-[4-(4-fluoro-phenoxy)-phenyl]-methanone]",5.77
18,"CC(c1ccccc1Cl)N1CC2CC1CN2C(=O)c1ccc(Oc2cccc(F)c2)cc1 (stereo not shown) [Example 169, {5-[1-(2-Chloro-phenyl)-ethyl]-2,5-diaza-bicyclo[2.2.1]hept-2-yl}-[4-(3-fluoro-phenoxy)-phenyl]-methanone]",6.08
19,"CC(c1ccccc1Cl)N1CC2CC1CN2C(=O)c1ccc(Oc2cccc(C#N)c2)cc1 (stereo not shown) [Example 173, 3-(4-{5-[1-(2-Chloro-phenyl)-ethyl]-2,5-diaza-bicyclo[2.2.1]heptane-2-carbonyl}-phenoxy)-benzonitrile]",5.71
20,"CC(c1ccccc1Cl)N1CC2CC1CN2C(=O)c1ccc(Oc2cccc(C#N)c2)cc1 (stereo not shown) [Example 174, 3-(4-{5-[1-(2-Chloro-phenyl)-ethyl]-2,5-diaza-bicyclo[2.2.1]heptane-2-carbonyl}-phenoxy)-benzonitrile]",5.85
21,"CC(c1ccccc1Cl)N1CC2CC1CN2C(=O)c1ccc(Oc2cccc(F)c2)cc1 (stereo not shown) [Example 175, {5-[1-(2-Chloro-phenyl)-ethyl]-2,5-diaza-bicyclo[2.2.1]hept-2-yl}-[4-(3-fluoro-phenoxy)-phenyl]-methanone]",6.19
22,"CC(c1ccccc1Cl)N1CC2CC1CN2C(=O)c1ccc(Oc2ccc(F)cc2)c(F)c1 (stereo not shown) [Example 178, {5-[1-(2-Chloro-phenyl)-ethyl]-2,5-diaza-bicyclo[2.2.1]hept-2-yl}-[3-fluoro-4-(4-fluoro-phenoxy)-phenyl]-methanone methanesulfonate salt]",6.21
23,"CC(c1ccccc1Cl)N1CC2CC1CN2C(=O)c1ccc(Oc2ccc(F)cc2)c(F)c1 (stereo not shown) [Example 179, {5-[1-(2-Chloro-phenyl)-ethyl]-2,5-diaza-bicyclo[2.2.1]hept-2-yl}-[3-fluoro-4-(4-fluoro-phenoxy)-phenyl]-methanone methanesulfonate salt]",5.87

# Same assay, conditions: hNav1.8 IC50, SH-SY-5Y hNav1.8 cells; FLIPR membrane potential dye; 10 μM pyrethroid, 250 nM TTX; test concentration range 100 μM-0.05 μM
row,Structure (SMILES),pIC50
1,"CC(c1ccccc1Cl)N1CC2CC1CN2C(=O)Cc1ccc(Oc2ccc(F)cc2)cc1 (stereo not shown) [Example 136, 1-{5-[1-(2-Chloro-phenyl)-ethyl]-2,5-diaza-bicyclo[2.2.1]hept-2-yl}-2-[4-(4-fluoro-phenoxy)-phenyl]-ethanone]",5.62
2,"O=C(Cc1ccc(Oc2ccc(F)cc2)cc1)N1CC2CC1CN2C1CCc2ccccc2C1 (stereo not shown) [Example 142, 2-[4-(4-Fluoro-phenoxy)-phenyl]-1-[5-(1,2,3,4-tetrahydro-naphthalen-2-yl)-2,5-diaza-bicyclo[2.2.1]hept-2-yl]-ethanone]",6.55
3,"O=C(Cc1ccc(Oc2ccc(F)cc2)cc1)N1CC2CC1CN2C1CCc2cc(F)ccc2C1 (stereo not shown) [Example 144, 2-[4-(4-Fluoro-phenoxy)-phenyl]-1-[5-(6-fluoro-1,2,3,4-tetrahydro-naphthalen-2-yl)-2,5-diaza-bicyclo[2.2.1]hept-2-yl]-ethanone]",5.80
4,"O=C(Cc1ccc(C(F)(F)F)cc1)N1CC2CC1CN2C1CCc2ccccc2C1 (stereo not shown) [Example 147, 1-[5-(1,2,3,4-Tetrahydro-naphthalen-2-yl)-2,5-diaza-bicyclo[2.2.1]hept-2-yl]-2-(4-trifluoromethyl-phenyl)-ethanone]",5.51
5,"O=C(Cc1ccc(C(F)(F)F)cc1)N1CC2CC1CN2C1CCc2ccc(F)cc2C1 (stereo not shown) [Example 148, 1-[5-(7-Fluoro-1,2,3,4-tetrahydro-naphthalen-2-yl)-2,5-diaza-bicyclo[2.2.1]hept-2-yl]-2-(4-trifluoromethyl-phenyl)-ethanone]",5.62
6,"CC(c1ccccc1Br)N1CC2CC1CN2C(=O)Cc1ccc(Oc2ccc(F)cc2)cc1 (stereo not shown) [Example 153, 1-{5-[1-(2-Bromo-phenyl)-ethyl]-2,5-diaza-bicyclo[2.2.1]hept-2-yl}-2-[4-(4-fluoro-phenoxy)-phenyl]-ethanone]",5.48
7,"CC(c1ccccc1Br)N1CC2CC1CN2C(=O)Cc1ccc(Oc2ccc(F)cc2)cc1 (stereo not shown) [Example 154, 1-{5-[1-(2-Bromo-phenyl)-ethyl]-2,5-diaza-bicyclo[2.2.1]hept-2-yl}-2-[4-(4-fluoro-phenoxy)-phenyl]-ethanone]",5.37
8,"CC(c1ccc(Cl)cc1Cl)N1CC2CC1CN2C(=O)Cc1ccc(Oc2ccc(F)cc2)cc1 (stereo not shown) [Example 155, 1-{5-[1-(2,4-Dichloro-phenyl)-ethyl]-2,5-diaza-bicyclo[2.2.1]hept-2-yl}-2-[4-(4-fluoro-phenoxy)-phenyl]-ethanone]",4.74
9,"CC(c1ccccc1Cl)N1CC2CC1CN2C(=O)Cc1ccc(Oc2cccc(F)c2)cc1 (stereo not shown) [Example 170, 1-{5-[1-(2-Chloro-phenyl)-ethyl]-2,5-diaza-bicyclo[2.2.1]hept-2-yl}-2-[4-(3-fluoro-phenoxy)-phenyl]-ethanone]",5.80
10,"Cc1ccccc1C(C)N1CC2CC1CN2C(=O)Cc1ccc(Oc2cccc(F)c2)cc1 (stereo not shown) [Example 171, 2-[4-(3-Fluoro-phenoxy)-phenyl]-1-[5-(1-o-tolyl-ethyl)-2,5-diaza-bicyclo[2.2.1]hept-2-yl]-ethanone]",6.17
11,"Cc1ccccc1C(C)N1CC2CC1CN2C(=O)Cc1ccc(Oc2cccc(F)c2)cc1 (stereo not shown) [Example 172, 2-[4-(3-Fluoro-phenoxy)-phenyl]-1-[5-(1-o-tolyl-ethyl)-2,5-diaza-bicyclo[2.2.1]hept-2-yl]-ethanone]",6.15
